{"source": "patent US20120004205A1", "about": "“IL-13 INDUCED GENE SIGNATURE FOR EOSINOPHILIC ESOPHAGITIS” (Cincinnati Children's Hospital Medical Center, priority 2008, published 2012)", "system": "STAT6:ER", "assay": "Eotaxin-3 promoter luciferase reporter in TE-7 cells cotransfected with STAT6:ER", "assay_type": "cell-based, human", "settings": "TE-7 cotransfected with eotaxin-3 promoter construct and STAT6:ER, within 24 hours", "procedure": "Plasmids were constructed or obtained as described before Blanchard, C. et al., (2005) Int. J. Biochem Cell Biol. 37: 2559-2573. Briefly, plasmid denoted P800, P500 and P100 contained respectively the first 800 by 500 by or 100 by of the human eotaxin-3 gene promoter (pEO3) subcloned into KpnI/HindIII-digested pGL3-Basic (Promega) as previously described Blanchard, C. et al., (2005) Int. J. Biochem. Cell Biol. 37: 2559-2579. Directed mutagenesis of the eotaxin-3 promoter was performed using Quickchange Kit from Stratagene according to the manufacturer's instructions using 2 primer sets: (first set) 5′-CCCAACCACAAGAAggtacc[…]-3′ and 5′-[…] ggtacc TTCTGTGGTTGGG-3′ which include a KpnI restriction site in the -89 TTCtctcgGAA STAT6 consensus site and (second set) 5′-GTAACTTAGTTCAG ggatcc […]-3′ and 5′-[…] ggatcc CTGAACTAAGTTAC-3′ which include a […] restriction site in the -698 TTCactgGAA STAT6 consensus site. […]\nApproximately 10^4 TE-7 cells per well (24 well plate) were plated on day 1 and transfected by Lipofectamine™ reagent on day 2. […] Cells were then lysed and the Firefly and Renilla luciferase activities were measured in a luminometor (Microlite, Dynatec Laboratories, Inc) using the Dual Luciferase Reporter assay system (Promega) in accordance with the manufacturer's instructions. […]"}
{"smiles": "CC/C(=C(\\c1ccc(O)cc1)c1ccc(OCCN(C)C)cc1)c1ccccc1", "note": "[4-hydroxytamoxifene]", "values": [{"measurement": "induction of eotaxin-3 promoter luciferase activity", "value": "significant (P<0.01) induction"}]}
